Measurements taken from US5840684A, “Glycopeptide antibiotic derivatives” (Eli Lilly and Company, priority 1995, dated 1998).
Converted amounts (≈) assume the structure as drawn.

Key:
[1] = system: Staphylococcus aureus SA1199A; assay: broth micro-dilution MIC; type: cell-based
Description: (§1) The MIC's were determined using a standard broth micro-dilution assay.

[2] = system: Staphylococcus aureus 446; assay: broth micro-dilution MIC; type: cell-based
Description: as §1

[3] = system: Staphylococcus aureus X778; assay: broth micro-dilution MIC; type: cell-based
Description: as §1

[4] = system: Staphylococcus aureus SA1199; assay: broth micro-dilution MIC; type: cell-based
Description: as §1

[5] = system: Entercoccus faecium 180-1; assay: broth micro-dilution MIC; type: cell-based
Description: as §1

[6] = system: Staphylococcus aureus 489; assay: broth micro-dilution MIC; type: cell-based
Description: as §1

[7] = system: Entercoccus faecium 276; assay: broth micro-dilution MIC; type: cell-based
Description: as §1

[8] = system: vancomycin-susceptible enterococci; assay: broth micro-dilution, mean geometric MIC; type: cell-based, Enterococcus faecium and Enterococcus faecalis; settings: enterococci, 24-hour incubation
[9] = system: Staphylococcus aureus S13E; type: cell-based
Description: as §1

[10] = system: vancomycin-resistant enterococci; assay: broth micro-dilution, mean geometric MIC; type: cell-based, Enterococcus faecium and Enterococcus faecalis; settings: enterococci, 24-hour incubation
[11] = system: Staphylococcus haemolyticus 415; assay: broth micro-dilution MIC; type: cell-based
Description: (§2) The formula I compounds have in vitro and in vivo activity against Gram-positive pathogenic bacteria. The MIC's were determined using a standard broth micro-dilution assay.

[12] = system: Staphylococcus epidermidis 270; assay: broth micro-dilution MIC; type: cell-based
Description: as §2

[13] = system: Entercoccus faecium 180; assay: broth micro-dilution MIC; type: cell-based; settings: Entercoccus faecium 180
Description: as §2

[14] = system: Entercoccus faecium 2041; assay: broth micro-dilution MIC; type: cell-based; settings: Entercoccus faecium 2041
Description: as §2

[15] = system: Staphylococcus haemolyticus 105; assay: broth micro-dilution MIC; type: cell-based
Description: as §2

[16] = system: Staphylococcus aureus X400; assay: broth micro-dilution MIC; type: cell-based
Description: as §1

[17] = system: Streptococcus pyogenes C203; assay: broth micro-dilution MIC; type: cell-based
Description: as §1

[18] = system: Staphylococcus aureus SA1199B; type: cell-based
Description: as §1

[19] = system: Enterococcus gallinarum 245; assay: broth micro-dilution MIC; type: cell-based; settings: Enterococcus gallinarum 245
Description: as §2

[20] = system: Streptococcus pneumoniae P1; assay: broth micro-dilution MIC; type: cell-based
Description: as §2

[21] = system: Staphylococcus aureus 447; assay: broth micro-dilution MIC; type: cell-based
Description: as §1

Compound | MIC [1] [µg/mL] | MIC [2] [µg/mL] | MIC [3] [µg/mL] | MIC [4] [µg/mL] | MIC [5] [µg/mL] | MIC [6] [µg/mL] | MIC [7] [µg/mL] | mean geometric MIC, Vancomycin Sensitive Strains [8] [µg/mL] | MIC [9] [µg/mL] | mean geometric MIC, Vancomycin Resistant Strains [10] [µg/mL] | MIC [11] [µg/mL] | MIC [13] [µg/mL] | MIC [14] [µg/mL] | MIC [15] [µg/mL] | MIC [16] [µg/mL] | MIC [17] [µg/mL] | MIC [18] [µg/mL] | MIC [19] [µg/mL] | MIC [20] [µg/mL] | MIC [21] [µg/mL] | further results
CNC(CC(C)C)C(=O)NC1C(=O)NC(CC(N)=O)C(=O)NC2C(=O)NC3C(=O)NC(C(=O)NC(C(=O)O)c4cc(O)cc(O)c4-c4cc3ccc4O)C(OC3CC(C)(N)C(O)C(C)O3)c3ccc(c(Cl)c3)Oc3cc2cc(c3OC2OC(CO)C(O)C(O)C2OC2CC(C)(NCCc3ccc(Oc4ccccc4)cc3)C(O)C(C)O2)Oc2ccc(cc2Cl)C1O (stereo not shown) [Compound 33] | ≤ 0.06 | 4 (≈ 2.24 µM) | 0.5 (≈ 0.28 µM) | 1 (≈ 0.559 µM) | ≤ 0.06 | ≤ 0.06 | ≤ 0.06 | 0.18 | ≤ 0.06 | 2.8 | 8 (≈ 4.47 µM) | 2 (≈ 1.12 µM) | ≤ 0.06 | 2 (≈ 1.12 µM) |  |  |  |  |  |  | MIC [12]: 2 µg/mL (≈ 1.12 µM)
CNC(CC(C)C)C(=O)NC1C(=O)NC(CC(N)=O)C(=O)NC2C(=O)NC3C(=O)NC(C(=O)NC(C(=O)O)c4cc(O)cc(O)c4-c4cc3ccc4O)C(OC3CC(C)(N)C(O)C(C)O3)c3ccc(c(Cl)c3)Oc3cc2cc(c3OC2OC(CO)C(O)C(O)C2OC2CC(C)(NCC3CCC(c4ccccc4)C3)C(O)C(C)O2)Oc2ccc(cc2Cl)C1O (stereo not shown) [Compound 140] | ≤ 0.06 |  |  | ≤ 0.06 | ≤ 0.06 | ≤ 0.06 | 0.5 (≈ 0.286 µM) | 0.19 | ≤ 0.06 | 6.7 | 8 (≈ 4.57 µM) | 1 (≈ 0.571 µM) | ≤ 0.06 | 2 (≈ 1.14 µM) | ≤ 0.06 | ≤ 0.06 | ≤ 0.06 | 8 (≈ 4.57 µM) | ≤ 0.06 |  | 
CNC(CC(C)C)C(=O)NC1C(=O)NC(CC(N)=O)C(=O)NC2C(=O)NC3C(=O)NC(C(=O)NC(C(=O)O)c4cc(O)cc(O)c4-c4cc3ccc4O)C(OC3CC(C)(N)C(O)C(C)O3)c3ccc(c(Cl)c3)Oc3cc2cc(c3OC2OC(CO)C(O)C(O)C2OC2CC(C)(NCc3ccc(-c4ccc(OC)c(OC)c4)cc3)C(O)C(C)O2)Oc2ccc(cc2Cl)C1O (stereo not shown) [Compound 215] | 0.5 (≈ 0.275 µM) | 0.5 (≈ 0.275 µM) | ≤ 0.06 | ≤ 0.06 | ≤ 0.06 | 2 (≈ 1.1 µM) | 2 (≈ 1.1 µM) |  | 2 (≈ 1.1 µM) | 2.8 | 1 (≈ 0.55 µM) | ≤ 0.06 |  | 2 (≈ 1.1 µM) | 0.5 (≈ 0.275 µM) | ≤ 0.06 | 1 (≈ 0.55 µM) |  | ≤ 0.06 | 0.5 (≈ 0.275 µM) | 
CNC(CC(C)C)C(=O)NC1C(=O)NC(CC(N)=O)C(=O)NC2C(=O)NC3C(=O)NC(C(=O)NC(C(=O)O)c4cc(O)cc(O)c4-c4cc3ccc4O)C(OC3CC(C)(N)C(O)C(C)O3)c3ccc(c(Cl)c3)Oc3cc2cc(c3OC2OC(CO)C(O)C(O)C2OC2CC(C)(NCCc3ccccc3OCc3ccccc3)C(O)C(C)O2)Oc2ccc(cc2Cl)C1O (stereo not shown) [Compound 59] | ≤ 0.06 | 0.5 (≈ 0.277 µM) | ≤ 0.06 | 0.125 (≈ 0.0693 µM) | ≤ 0.06 | 0.125 (≈ 0.0693 µM) | 0.125 (≈ 0.0693 µM) | 0.42 | 0.125 (≈ 0.0693 µM) | 51 | 8 (≈ 4.44 µM) | 8 (≈ 4.44 µM) | 0.5 (≈ 0.277 µM) | 8 (≈ 4.44 µM) |  | ≤ 0.06 | 0.5 (≈ 0.277 µM) | 1 (≈ 0.555 µM) | ≤ 0.06 | 1 (≈ 0.555 µM) | MIC [12]: 1 µg/mL (≈ 0.555 µM)
CNC(CC(C)C)C(=O)NC1C(=O)NC(CC(N)=O)C(=O)NC2C(=O)NC3C(=O)NC(C(=O)NC(C(=O)O)c4cc(O)cc(O)c4-c4cc3ccc4O)C(OC3CC(C)(N)C(O)C(C)O3)c3ccc(c(Cl)c3)Oc3cc2cc(c3OC2OC(CO)C(O)C(O)C2OC2CC(C)(NCc3ccccc3O)C(O)C(C)O2)Oc2ccc(cc2Cl)C1O (stereo not shown) [Compound 169] | ≤ 0.06 |  | ≤ 0.06 | ≤ 0.06 | ≤ 0.06 | ≤ 0.06 | ≤ 0.06 | 0.50 | ≤ 0.06 | 19 | 4 (≈ 2.35 µM) | 1 (≈ 0.589 µM) | ≤ 0.06 | 2 (≈ 1.18 µM) | ≤ 0.06 | ≤ 0.06 | 0.125 (≈ 0.0736 µM) | 4 (≈ 2.35 µM) | ≤ 0.06 | 2 (≈ 1.18 µM) | 
CNC(CC(C)C)C(=O)NC1C(=O)NC(CC(N)=O)C(=O)NC2C(=O)NC3C(=O)NC(C(=O)NC(C(=O)O)c4cc(O)cc(O)c4-c4cc3ccc4O)C(OC3CC(C)(N)C(O)C(C)O3)c3ccc(c(Cl)c3)Oc3cc2cc(c3OC2OC(CO)C(O)C(O)C2OC2CC(C)(NCc3ccc(-c4ccc(OC)cc4)cc3)C(O)C(C)O2)Oc2ccc(cc2Cl)C1O (stereo not shown) [Compound 54] | ≤ 0.06 | 1 (≈ 0.559 µM) | ≤ 0.06 | 0.5 (≈ 0.28 µM) | ≤ 0.06 | ≤ 0.06 | 1 (≈ 0.559 µM) | 0.56 | 0.5 (≈ 0.28 µM) | 1.7 | 1 (≈ 0.559 µM) | 1 (≈ 0.559 µM) | ≤ 0.06 | 2 (≈ 1.12 µM) | ≤ 0.06 | ≤ 0.06 | 1 (≈ 0.559 µM) | 0.5 (≈ 0.28 µM) | ≤ 0.06 |  | 
CNC(CC(C)C)C(=O)NC1C(=O)NC(CC(N)=O)C(=O)NC2C(=O)NC3C(=O)NC(C(=O)NC(C(=O)O)c4cc(O)cc(O)c4-c4cc3ccc4O)C(OC3CC(C)(N)C(O)C(C)O3)c3ccc(c(Cl)c3)Oc3cc2cc(c3OC2OC(CO)C(O)C(O)C2OC2CC(C)(NCc3cccc4c([N+](=O)[O-])cccc34)C(O)C(C)O2)Oc2ccc(cc2Cl)C1O (stereo not shown) [Compound 25] | ≤ 0.06 |  | ≤ 0.06 | ≤ 0.06 | ≤ 0.06 | ≤ 0.06 | 0.25 (≈ 0.141 µM) | 0.22 | ≤ 0.06 | 4.0 |  |  | 0.25 (≈ 0.141 µM) |  | ≤ 0.06 | ≤ 0.06 |  | ≤ 0.06 | ≤ 0.06 |  | 
